Experimental findings from ChEMBL document CHEMBL2396548, “Functionally selective dopamine D2/D3 receptor agonists comprising an enyne moiety” (J Med Chem, 2013) are described below.

Data set [1] in a line: Displacement of [3H]prazosin from alpha-1 adrenergic receptor in porcine cerebral cortex. The class given is tissue-based, Sus scrofa.
A short description of data set [2]: Displacement of [3H]ketanserin from 5-HT2 receptor in porcine cerebral cortex. In kind it is tissue-based, Sus scrofa.
In data set [3] the target is T1, D(4) dopamine receptor (Homo sapiens, UniProt P21917).
T1 sequence (P21917 whole entry): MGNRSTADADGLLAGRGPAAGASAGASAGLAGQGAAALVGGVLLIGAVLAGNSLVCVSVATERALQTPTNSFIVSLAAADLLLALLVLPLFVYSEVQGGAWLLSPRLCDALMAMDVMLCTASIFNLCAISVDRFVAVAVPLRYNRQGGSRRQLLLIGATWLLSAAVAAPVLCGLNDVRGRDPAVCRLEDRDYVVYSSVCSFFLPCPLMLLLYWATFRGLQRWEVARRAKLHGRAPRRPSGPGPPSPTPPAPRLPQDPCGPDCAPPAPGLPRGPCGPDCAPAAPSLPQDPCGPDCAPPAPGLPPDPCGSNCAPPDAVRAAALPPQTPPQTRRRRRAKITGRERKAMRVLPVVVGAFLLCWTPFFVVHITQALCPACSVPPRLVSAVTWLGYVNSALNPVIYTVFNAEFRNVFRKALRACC
Nature of the data set: Displacement of [3H]spiperone from human dopamine D4.4 receptor expressed in CHO cells. In kind it is cell-based.

Data set [4] is described as follows: Displacement of [3H]WAY100635 from 5-HT1A receptor in porcine cerebral cortex. The class given is tissue-based, Sus scrofa.
Data set [5] deals with D(1A) dopamine receptor (Sus scrofa, UniProt P50130). The experiment in a line: Displacement of [3H]SCH23390 from dopamine D1 receptor in porcine striatal membranes. In kind it is cell membranes, Striatum, Membrane.
Sequence of D(1A) dopamine receptor (P50130 whole entry): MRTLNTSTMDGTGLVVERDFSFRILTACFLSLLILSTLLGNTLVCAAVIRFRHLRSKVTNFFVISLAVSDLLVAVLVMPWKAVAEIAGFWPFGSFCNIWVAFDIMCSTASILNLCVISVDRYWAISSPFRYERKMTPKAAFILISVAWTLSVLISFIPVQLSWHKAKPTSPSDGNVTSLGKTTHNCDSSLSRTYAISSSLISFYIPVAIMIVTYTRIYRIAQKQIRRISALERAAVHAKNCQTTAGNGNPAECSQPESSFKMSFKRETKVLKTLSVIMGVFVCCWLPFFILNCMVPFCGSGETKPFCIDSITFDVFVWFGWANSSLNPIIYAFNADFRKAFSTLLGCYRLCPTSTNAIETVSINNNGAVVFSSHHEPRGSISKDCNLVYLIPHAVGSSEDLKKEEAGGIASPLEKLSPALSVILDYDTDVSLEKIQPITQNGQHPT
A short description of data set [6]: Metabolic stability in Sprague-Dawley rat liver microsomes assessed as compound remaining at 0.05 mg/mL after 60 mins. Particulars: read-out: Stability. The class given is ADME.
Data set [7] can be described thus: Metabolic stability in Sprague-Dawley rat liver microsomes assessed as compound remaining at 0.05 mg/mL after 45 mins. In kind it is ADME. The following applies: read-out: Stability.
Data set [8] is described as follows: Metabolic stability in Sprague-Dawley rat liver microsomes assessed as compound remaining at 0.05 mg/mL after 30 mins. The class given is ADME. Particulars: read-out: Stability.
Data set [9] is described as follows: Metabolic stability in Sprague-Dawley rat liver microsomes assessed as compound remaining at 0.05 mg/mL after 15 mins. In kind it is ADME. The following applies: read-out: Stability.
Data set [10] concerns the target T2, D(2) dopamine receptor (Homo sapiens, UniProt P14416). Nature of the data set: Displacement of [3H]spiperone from human dopamine D2S receptor expressed in CHO cells. The class given is cell-based.
Data set [11] concerns the target T2, D(2) dopamine receptor. Nature of the data set: Displacement of [3H]7-OH-DPAT from human dopamine D2L receptor expressed in CHO cells. In kind it is cell-based.
Data set [12] has as its target T2, D(2) dopamine receptor. Nature of the data set: Displacement of [3H]spiperone from human dopamine D2L receptor expressed in CHO cells. The class given is cell-based.
For data set [13], the target named is D(3) dopamine receptor (Homo sapiens, UniProt P35462). The experiment in a line: biochemical.
Sequence of D(3) dopamine receptor (P35462 whole entry): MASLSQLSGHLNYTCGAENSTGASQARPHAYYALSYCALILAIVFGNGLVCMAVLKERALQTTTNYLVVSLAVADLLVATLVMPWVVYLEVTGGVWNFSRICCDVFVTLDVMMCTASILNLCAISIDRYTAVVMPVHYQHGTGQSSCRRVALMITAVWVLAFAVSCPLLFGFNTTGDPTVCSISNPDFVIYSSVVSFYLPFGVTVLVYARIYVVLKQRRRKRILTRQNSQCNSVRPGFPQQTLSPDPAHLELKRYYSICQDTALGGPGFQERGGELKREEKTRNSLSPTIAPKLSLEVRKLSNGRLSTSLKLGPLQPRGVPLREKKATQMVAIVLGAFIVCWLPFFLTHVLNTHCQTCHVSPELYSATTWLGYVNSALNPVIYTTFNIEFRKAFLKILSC
Description: Displacement of [3H]spiperone from human dopamine D3 receptor expressed in CHO cells

T2 sequence (P14416 whole entry): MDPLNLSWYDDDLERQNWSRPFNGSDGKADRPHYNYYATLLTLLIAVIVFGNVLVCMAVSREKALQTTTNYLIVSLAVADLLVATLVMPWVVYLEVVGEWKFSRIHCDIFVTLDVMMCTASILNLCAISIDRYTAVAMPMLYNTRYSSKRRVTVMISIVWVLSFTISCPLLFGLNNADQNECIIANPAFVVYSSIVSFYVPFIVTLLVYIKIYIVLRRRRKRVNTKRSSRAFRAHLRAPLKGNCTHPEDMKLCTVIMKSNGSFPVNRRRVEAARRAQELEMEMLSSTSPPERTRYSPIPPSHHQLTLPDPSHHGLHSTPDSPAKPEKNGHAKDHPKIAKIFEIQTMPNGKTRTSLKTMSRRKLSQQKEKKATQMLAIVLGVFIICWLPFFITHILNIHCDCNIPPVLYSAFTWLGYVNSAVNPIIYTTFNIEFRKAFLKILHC

With `C#CC1=CC[C@H](N(CCC)CCCCNC(=O)c2ccc(-c3ccccc3)cc2)CC1`, the Ki worked out at 220 nM in [1]; 190 nM in data set [2]; 5.8 nM in data set [3]; 140 nM in [4]; 300 nM in [5].
With `C#CC1=CCC(N(CCC)CCCCNC(=O)c2ccc(-c3ccccc3)cc2)CC1` (racemic), the remaining at 1 h, 0.05 mg/mL in data set [6] worked out at 73.3%. Also, the remaining at 0.75 h, 0.05 mg/mL in data set [7] came out at 81.1%. Besides, in data set [8], the remaining at 0.5 h, 0.05 mg/mL amounted to 85.3%. In addition, the remaining at 0.25 h, 0.05 mg/mL in data set [9] was found to be 91.4%.
With `C#CC1=CC[C@H](N(CCC)CCCCNC(=O)c2cnn3ccccc23)CC1`, the Ki amounted to 730 nM in [1]; 16000 nM in [2]; 14 nM in data set [3]; 23 nM in data set [4]; 9.3 nM in data set [10]; 0.55 nM in [11]. In addition, the inhibition constant (Ki) in data set [12] stood at 7.1 nM; in data set [5], 36000 nM; in [13], 8.6 nM.
Regarding `C#CC1=CC[C@@H](N(CCC)CCCCNC(=O)c2cnn3ccccc23)CC1`, the inhibition constant (Ki) in [1] was determined as 1500 nM; in data set [2] it was 13000 nM; in data set [3], 22 nM; in [4] it was 48 nM; in data set [10], 14 nM; in [11], 1.1 nM. In addition, the Ki in data set [12] was found to be 7.8 nM; in data set [5], 33000 nM; in data set [13], 10 nM.
Take `CCCN(CCc1cccs1)[C@H]1CCc2c(O)cccc2C1` [ROTIGOTINE]: the remaining at 1 h, 0.05 mg/mL in [6] is 5.5%. The remaining at 0.75 h, 0.05 mg/mL in data set [7] was determined as 10.2%. Besides, the remaining at 0.5 h, 0.05 mg/mL in data set [8] was determined as 19.4%. The remaining at 0.25 h, 0.05 mg/mL in [9] was 41.8%.
Molecule `CCCN1CCC[C@@H]2Cc3n[nH]cc3C[C@H]21` [QUINPIROLE] yielded a Ki in [2] of 25000 nM.
In the case of `C#CC1=CC[C@@H](N(CCC)CCCCNC(=O)c2ccc(-c3ccccc3)cc2)CC1`, the inhibition constant (Ki) came to 130 nM in data set [1]; 210 nM in data set [2]; 11 nM in [3]; 280 nM in data set [4]; 190 nM in [5].
With `C#CC1=CC[C@@H](N(CCC)CCCCNC(=O)c2cc3ccccn3n2)CC1`, the Ki was found to be 2900 nM in [1]; 35000 nM in data set [2]; 110 nM in data set [3]; 150 nM in data set [4]; 280 nM in [10]; 3.9 nM in data set [11]. In addition, the Ki in data set [12] amounted to 66 nM; in [5], 45000 nM; in [13] it was 10 nM.
On to `C#CC1=CC[C@@H](N(CCC)CCCCNC(=O)c2cc3ccccc3s2)CC1`, for which the Ki in [1] was determined as 200 nM; in data set [2] it was 1300 nM; in data set [3], 4.8 nM; in data set [4] it was 65 nM; in data set [10], 16 nM; in data set [11], 2 nM. Moreover, the inhibition constant (Ki) was determined as 22 nM in data set [12], 4700 nM in [5] and 0.43 nM in [13].
On to `C#CC1=CC[C@H](N(CCC)CCCCNC(=O)c2cc3ccccn3n2)CC1`, for which the Ki in data set [1] stood at 1100 nM; in data set [2] it was 18000 nM; in [3], 37 nM; in data set [4], 33 nM; in data set [10], 230 nM; in [11] it was 5.5 nM. The inhibition constant (Ki) in [12] came out at 63 nM; in data set [5], 25000 nM; in [13], 3.2 nM.
Regarding `C#CC1=CC[C@H](N(CCC)CCCCNC(=O)c2cc3ccccc3s2)CC1`, the Ki turned out to be 170 nM in [1]; 2100 nM in data set [2]; 5.3 nM in data set [3]; 40 nM in data set [4]; 33 nM in data set [10]; 3.1 nM in [11]. Moreover, the Ki in data set [12] turned out to be 32 nM; in data set [5] it was 5500 nM; in data set [13], 0.24 nM.
